Assay results published in PMC9965906, “Discovery and Development Strategies for SARS-CoV-2 NSP3 Macrodomain Inhibitors” (Pathogens, 2023).
Values joined by “and” are separate entries in the source; they are usually repeats but may differ in a detail not shown here. Equal entries are not always repeated.

Molecular target: SARS-CoV-2 NSP3 Mac1 (Severe acute respiratory syndrome coronavirus 2, UniProt P0DTD1)
Assay: biochemical
Type: binding
Conditions: for NSP3 Mac1 inhibition at 50 µM (%) / inhibition at 50 µM: FDA-approved compound library primary screen, single shot
[1] = MIDAS compound library primary screen
[2] = BioAscent virtual screening hit compounds, duplicate

Row | SMILES | inhibition at 25 µM [2] [%] | further results
1 | O=C(Nc1ccc2cc[nH]c2c1)c1csc(NCC2CCCO2)n1 (stereo not drawn) [ARUK4000671-001-001, O=C(Nc1ccc2cc[nH]c2c1)c1csc(n1)NCC1CCCO1] |  | inhibition at 25 µM [1]: 106%
2 | NC(=O)[C@@H]1CCCN1C(=O)c1cc(-n2cccc2)ccc1Cl [ARUK4000702-001-001, NC(=O)[C@@H]1CCCN1C(=O)c1cc(ccc1Cl)-n1cccc1] |  | inhibition at 25 µM [1]: 45.8%
3 | CC(=O)N1CCc2nc(N)c(C#N)c(-c3cccc(-c4ccco4)c3)c2C1 [ARUK4004310-001-001, CC(=O)N1CCc2nc(c(c(c2C1)-c1cccc(c1)-c1ccco1)C#N)N] |  | inhibition at 25 µM [1]: 61%
4 | COc1ccc(C(=O)CC(=O)c2ccc(C(C)(C)C)cc2)cc1 [Avobenzone, reference compound] |  | NSP3 Mac1 inhibition at 50 µM (%): 62%; inhibition at 50 µM: 61.8%
5 | C[C@H]1[C@H](NC(=O)/C(=N\OC(C)(C)C(=O)O)c2csc(N)n2)C(=O)N1S(=O)(=O)O [Aztreonam, reference compound] |  | NSP3 Mac1 inhibition at 50 µM (%): 43%; inhibition at 50 µM: 42.8%; Hill slope (FDA-approved hit compounds, confirmatory HTRF assays): 1.05; IC50 (IC50): 29.3 µM and 29 µM
6 | COc1cc(/C=C2\Oc3cc(O)ccc3C2=O)ccc1O [BCC0002149, COc1cc(/C=C2\Oc3cc(O)ccc3C2=O)ccc1O] | 47.2 | 
7 | CN(C)S(=O)(=O)c1ccc2nc(C(=O)O)n(O)c2c1 [BCC0019152, CN(C)S(=O)(=O)c1ccc2nc(C(=O)O)n(O)c2c1] | 32.7 | 
8 | O=c1cc(-c2ccc(Cl)cc2)oc2cc(OCC(O)CS(=O)(=O)c3ccc(Cl)cc3)ccc12 (stereo not drawn) [BCC0030992, O=c1cc(-c2ccc(Cl)cc2)oc2cc(OCC(O)CS(=O)(=O)c3ccc(Cl)cc3)ccc12] | 31.6 | 
9 | CCN1C(=O)c2cccc3c(S(=O)(=O)O)ccc1c23 [BCC0032304, CCN1C(=O)c2cccc3c(S(=O)(=O)O)ccc1c23] | 36.4 | 
10 | Cc1cccn2c(=O)c3cc(C(=O)O)n(C)c3nc12 [BCC0049478, Cc1cccn2c(=O)c3cc(C(=O)O)n(C)c3nc12] | 30.6 | 
11 | CN1C(=O)c2ccc(N3CCCC3)cc2C1=O [BCC0067629, CN1C(=O)c2ccc(N3CCCC3)cc2C1=O] | 30.5 | 
12 | Oc1nc2ccccc2nc1-c1c[nH]c2ccccc12 [BCC0071692, Oc1nc2ccccc2nc1-c1c[nH]c2ccccc12] | 35 | 
13 | CN(C)c1ccc(-c2ccc3ccccc3n2)cc1 [BCC0083752, CN(C)c1ccc(-c2ccc3ccccc3n2)cc1] | 46.8 | 
14 | Cc1cc2nn(-c3ccccc3)nc2cc1N [BCC0086077, Cc1cc2nn(-c3ccccc3)nc2cc1N] | 67.8 | 
15 | Nc1ccc2nc3c(=O)[nH]c(=O)[nH]c3nc2c1 [BCC0091906, Nc1ccc2nc3c(=O)[nH]c(=O)[nH]c3nc2c1] | 56.2 | 
16 | Oc1cc2ccccc2nc1-c1ccccc1 [BCC0093974, Oc1cc2ccccc2nc1-c1ccccc1] | 38.6 | 
17 | Nc1ccc2oc(-c3cccnc3)nc2c1 [BCC0105824, Nc1ccc2oc(-c3cccnc3)nc2c1] | 30.1 | 
18 | O=c1c(O)c(-c2cccs2)oc2ccccc12 [BCC0111915, O=c1c(O)c(-c2cccs2)oc2ccccc12] | 62.9 | 
19 | COc1cc(/C=C/C(=O)c2cc3ccccc3o2)cc(Br)c1O [BCC0117785, COc1cc(/C=C/C(=O)c2cc3ccccc3o2)cc(Br)c1O] | 39.3 | 
20 | CC(=O)c1ccc(-c2ccc(N)cc2)o1 [BCC0119417, CC(=O)c1ccc(-c2ccc(N)cc2)o1] | 59.3 | 
21 | Nc1ccc2c(c1)C/C(=C/c1ccco1)C2=O [BCC0121661, Nc1ccc2c(c1)C/C(=C/c1ccco1)C2=O] | 56.9 | 
22 | O=c1ccsn1-c1ccc(F)c(Cl)c1 [BCC0125028, O=c1ccsn1-c1ccc(F)c(Cl)c1] | 57.5 | 
23 | O=C(O)CCCC[C@@H]1SC[C@@H]2NC(=O)N[C@@H]21 [Biotin, reference compound] |  | NSP3 Mac1 inhibition at 50 µM (%): 107%; inhibition at 50 µM: 108%
24 | N.N.O=C([O-])C1(C(=O)[O-])CCC1.[Pt+2] [Carboplatin, reference compound] |  | NSP3 Mac1 inhibition at 50 µM (%): 97.3%; outcome of dose-response titration (FDA-approved hit compounds, top concentration 125 µM): strong assay interference
